The values that follow come from patent US10226452B2, “Benzoxazolone derivatives as acid ceramidase inhibitors, and their use as medicaments” (FONDAZIONE ISTITUTO ITALIANO DI TECNOLOGIA, priority 2014, dated 2019).

The target of the assay is human (hAC) acid ceramidase (Homo sapiens (Human), UniProt Q13510). Nature of the assay: fluorescent-based in vitro assay on human acid ceramidase. It is filed as biochemical. The settings on record: hAC-enriched lysosomal lysate from HEK293 cells; fluorogenic probe 5 μM; pH 4.5. An excerpt: To evaluate the potency of the compounds towards acid ceramidase, a fluorescence-based in vitro assay previously described in literature (Bedia C et al., ChemBioChem, 2007, 8, 642-648) was implemented and optimized. This assay is based on a “fluorogenic probe” containing a coumarin group and a sphingoid base moiety (see figure below), which is not fluorescent in itself, but upon enzymatic cleavage by acid ceramidase followed by a chemical transformation liberates the fluorescent molecule umbelliferone (7-hydroxychromen-2-one). By quantifying the generation of umbelliferone using a fluorescence plate-reader, the level of enzymatic activity can be measured, whereby IC50 values of compounds that inhibit this activity can be generated.
human (hAC) acid ceramidase, sequence (Q13510 22-142): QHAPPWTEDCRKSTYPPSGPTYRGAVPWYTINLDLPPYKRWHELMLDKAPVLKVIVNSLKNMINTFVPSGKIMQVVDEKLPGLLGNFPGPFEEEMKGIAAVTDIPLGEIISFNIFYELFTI
human (hAC) acid ceramidase, sequence (Q13510 143-395): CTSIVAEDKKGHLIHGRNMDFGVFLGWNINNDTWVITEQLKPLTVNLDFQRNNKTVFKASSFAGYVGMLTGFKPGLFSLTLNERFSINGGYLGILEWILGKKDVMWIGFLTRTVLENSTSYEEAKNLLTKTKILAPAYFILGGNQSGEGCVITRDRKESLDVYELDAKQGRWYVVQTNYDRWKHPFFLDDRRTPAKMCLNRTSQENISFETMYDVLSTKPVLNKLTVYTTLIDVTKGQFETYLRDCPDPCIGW
Lysosomal lysate, enriched with acid ceramidase, was prepared from a cell line stably expressing human acid ceramidase. In the assay, the fluorogenic probe (or substrate) serves as a ceramide-analogue, which is recognized and hydrolyzed at the amide bond by acid ceramidase from the enriched lysate to yield the fatty acid and coumarinic aminodiol. By treating the solution with sodium periodate (NaIO4), the coumarinic aminodiol is subsequently oxidized into an aldehyde intermediate, which undergoes a β-elimination reaction to release the strongly fluorescent umbelliferone.
A lysosomal human acid ceramidase protein preparation was obtained from HEK293 cells stably expressing acid ceramidase suspended in 20 mM Tris HCl (pH 7.5) with 0.32 M sucrose. The cell solution was sonicated and centrifuged at 800×g for 15 min at 4° C. Supernatants were then centrifuged at 12,000×g for 30 min at 4° C. Pellets were re-suspended in PBS pH 7.4 and subjected to two freeze-thaw cycles at −80° C. The suspension was finally centrifuged at 105,000×g for 1 hour at 4° C. and protein concentration was measured in the supernatant with bicinchinonic-acid based protein assay. This human acid ceramidase-enriched preparation allowed us to further optimize the enzymatic assay and to use smaller amounts of lysate (2 μg/well) and substrate (5 μM).
The assay was performed in Optiplate 96-wells black plates, with each reaction well containing a mixture of 25 mM sodium acetate buffer pH 4.5 and a fixed amount of protein (2 μg) in a volume of 85 μL. After 30 mins of pre-incubation with test compounds (diluted 20× from DMSO stock solutions at different concentrations), the fluorogenic probe was added (diluted 20× from EtOH stock solution, final concentration 5 μM). After incubation for 3 hours at 37° C., the reactions were stopped with 50 μL of methanol and 100 μL of a 2.5 mg/mL NalO4 fresh solution in 100 mM Glycine/NaOH pH 10.6. The plate was incubated at 37° C. for 2 hours in the dark and fluorescence intensities were measured at excitation/emission wavelengths of 360/446 nm. Negative control samples consisted of the same incubation mixture in the absence of protein extracts. The IC50 values or percent of inhibition, at the indicated concentration, of selected compounds described in the invention are reported in Table 2.

The structures appear in SMILES notation.

`O=C(NCCCCc1ccccc1)n1c(=O)oc2ccccc21` [Example 1, 2-Oxo-N-(4-phenylbutyl)-1,3-benzoxazole-3-carboxamide] returned an IC50 of 64 ± 7 nM. In turn, `O=C(NCCCCc1ccccc1)n1c(=O)oc2ccc(F)cc21` [Example 2, 5-Fluoro-2-oxo-N-(4-phenylbutyl)-1,3-benzoxazole-3-carboxamide] displayed an IC50 of 56 ± 12 nM.

Take `O=C(NCCCCc1ccccc1)n1c(=O)oc2cc(F)ccc21` [Example 3, 6-Fluoro-2-oxo-N-(4-phenylbutyl)-1,3-benzoxazole-3-carboxamide]: the IC50 came to 10 ± 7 nM. Take `O=C(NCCCCc1ccccc1)n1c(=O)oc2ccc(Cl)cc21` [Example 4, 5-Chloro-2-oxo-N-(4-phenylbutyl)-1,3-benzoxazole-3-carboxamide]: the IC50 was 9 ± 7 nM. The result for `O=C(NCCCCc1ccccc1)n1c(=O)oc2cc(Cl)ccc21` [Example 5, 6-Chloro-2-oxo-N-(4-phenylbutyl)-1,3-benzoxazole-3-carboxamide] reads 33 ± 4 nM; that for `O=C(NCCCCc1ccccc1)n1c(=O)oc2ccc(Br)cc21` [Example 6, 5-Bromo-2-oxo-N-(4-phenylbutyl)-1,3-benzoxazole-3-carboxamide], 22 ± 11 nM. `Cc1ccc2oc(=O)n(C(=O)NCCCCc3ccccc3)c2c1` [Example 8, 5-Methyl-2-oxo-N-(4-phenylbutyl)-1,3-benzoxazole-3-carboxamide]: it took 117 ± 26 nM to reach half-maximal inhibition (IC50). Regarding `Cc1ccc2c(c1)oc(=O)n2C(=O)NCCCCc1ccccc1` [Example 9, 6-Methyl-2-oxo-N-(4-phenylbutyl)-1,3-benzoxazole-3-carboxamide], 66 ± 9 nM corresponded to half-maximal inhibition (IC50).

Regarding `COc1ccc2c(c1)oc(=O)n2C(=O)NCCCCc1ccccc1` [Example 10, 6-Methoxy-2-oxo-N-(4-phenylbutyl)-1,3-benzoxazole-3-carboxamide], the IC50 worked out at 52 ± 9 nM. On to `O=C(NCCCCc1ccccc1)n1c(=O)oc2ccc([N+](=O)[O-])cc21` [Example 11, 5-Nitro-2-oxo-N-(4-phenylbutyl)-1,3-benzoxazole-3-carboxamide], for which the IC50 turned out to be 3 ± 2 nM. `O=C(NCCCCc1ccccc1)n1c(=O)oc2cc([N+](=O)[O-])ccc21` [Example 12, 6-Nitro-2-oxo-N-(4-phenylbutyl)-1,3-benzoxazole-3-carboxamide] yielded an IC50 of 3 ± 1 nM. In the case of `O=C(NCCCCc1ccccc1)n1c(=O)oc2ccc(C(F)(F)F)cc21` [Example 13, 2-Oxo-N-(4-phenylbutyl)-5-(trifluoromethyl)-1,3-benzoxazole-3-carboxamide] it was 11 ± 5 nM; in that of `O=C(NCCCCc1ccccc1)n1c(=O)oc2cc(C(F)(F)F)ccc21` [Example 14, 2-Oxo-N-(4-phenylbutyl)-6-(trifluoromethyl)-1,3-benzoxazole-3-carboxamide], 20 ± 9 nM.

In turn, `N#Cc1ccc2oc(=O)n(C(=O)NCCCCc3ccccc3)c2c1` [Example 15, 5-Cyano-2-oxo-N-(4-phenylbutyl)-1,3-benzoxazole-3-carboxamide] displayed an IC50 of 11 nM. In turn, `O=C(NCCCCc1ccccc1)n1c(=O)oc2cc(Cl)c(Cl)cc21` [Example 16, 5,6-Dichloro-2-oxo-N-(4-phenylbutyl)-1,3-benzoxazole-3-carboxamide] returned an IC50 of 18 ± 8 nM. In turn, `Cc1cccc2c1oc(=O)n2C(=O)NCCCCc1ccccc1` [Example 18, 7-Methyl-2-oxo-N-(4-phenylbutyl)-1,3-benzoxazole-3-carboxamide] yielded an IC50 of 23 ± 5 nM. Molecule `O=C(NCCCCc1ccccc1)n1c(=O)oc2c(Br)cccc21` [Example 19, 7-Bromo-2-oxo-N-(4-phenylbutyl)-1,3-benzoxazole-3-carboxamide] registered an IC50 of 18 ± 11 nM. `O=C(NCCCCc1ccccc1)n1c(=O)oc2ccc(-c3ccccc3)cc21` [Example 20, 2-Oxo-5-phenyl-N-(4-phenylbutyl)-1,3-benzoxazole-3-carboxamide]: 22 nM corresponded to half-maximal inhibition (IC50). In the case of `COc1ccc(-c2ccc3oc(=O)n(C(=O)NCCCCc4ccccc4)c3c2)cc1` [Example 21, 5-(4-Methoxyphenyl)-2-oxo-N-(4-phenylbutyl)-1,3-benzoxazole-3-carboxamide] it was 68 nM.

On to `O=C(NCCCCc1ccccc1)n1c(=O)oc2ccc(-c3ccc(F)cc3)cc21` [Example 22, 5-(4-Fluorophenyl)-2-oxo-N-(4-phenylbutyl)-1,3-benzoxazole-3-carboxamide], for which the IC50 is 56 ± 14 nM. Regarding `O=C(NCCCCc1ccccc1)n1c(=O)oc2cc(-c3ccccc3)ccc21` [Example 23, 2-Oxo-6-phenyl-N-(4-phenylbutyl)-1,3-benzoxazole-3-carboxamide], the IC50 was 84 ± 35 nM. In the case of `COc1ccc(-c2ccc3c(c2)oc(=O)n3C(=O)NCCCCc2ccccc2)cc1` [Example 24, 6-(4-Methoxyphenyl)-2-oxo-N-(4-phenylbutyl)-1,3-benzoxazole-3-carboxamide] it was 67 ± 5 nM. Molecule `O=C(NCCCCc1ccccc1)n1c(=O)oc2cccc(-c3ccccc3)c21` [Example 26, 2-Oxo-4-phenyl-N-(4-phenylbutyl)-1,3-benzoxazole-3-carboxamide] yielded an IC50 of 0.8 ± 0.1 nM. In the case of `O=C(NCCCCc1ccccc1)n1c(=O)oc2c(-c3ccccc3)cccc21` [Example 27, 2-Oxo-7-phenyl-N-(4-phenylbutyl)-1,3-benzoxazole-3-carboxamide] it was 91 ± 10 nM; in that of `O=C(NCCCCc1ccccc1)n1c(=O)oc2cc(O)ccc21` [Example 35, 6-Hydroxy-2-oxo-N-(4-phenylbutyl)-1,3-benzoxazole-3-carboxamide], 152 ± 87 nM; in that of `CCC(=O)c1ccc2c(c1)oc(=O)n2C(=O)NCCCCc1ccccc1` [Example 36, 2-Oxo-N-(4-phenylbutyl)-6-propanoyl-1,3-benzoxazole-3-carboxamide], 16 ± 14 nM. For `O=C(c1ccccc1)c1ccc2c(c1)oc(=O)n2C(=O)NCCCCc1ccccc1` [Example 37, 6-Benzoyl-2-oxo-N-(4-phenylbutyl)-1,3-benzoxazole-3-carboxamide], half-maximal inhibition (IC50) required 29 ± 1 nM. Turning to `O=C(c1ccc(Cl)cc1)c1ccc2c(c1)oc(=O)n2C(=O)NCCCCc1ccccc1` [Example 38, 6-(4-Chlorobenzoyl)-2-oxo-N-(4-phenylbutyl)-1,3-benzoxazole-3-carboxamide], the IC50 worked out at 14 ± 4 nM. In the case of `O=C(NCCCCC1CCCCC1)n1c(=O)oc2ccccc21` [Example 39, N-(4-Cyclohexylbutyl)-2-oxo-1,3-benzoxazole-3-carboxamide] it was 62 ± 44 nM; in that of `CCC[C@H]1CC[C@H](CNC(=O)n2c(=O)oc3ccccc32)CC1` [Example 40, 2-Oxo-N-[(4-propylcyclohexyl)methyl]-1,3-benzoxazole-3-carboxamide], 135 ± 56 nM; in that of `CCCc1ccc(CNC(=O)n2c(=O)oc3ccccc32)cc1` [Example 41, 2-Oxo-N-[(4-propylphenyl)methyl]-1,3-benzoxazole-3-carboxamide], 19 ± 2 nM. With `CCCCCCCCNC(=O)n1c(=O)oc2ccccc21` [Example 42, N-Octyl-2-oxo-1,3-benzoxazole-3-carboxamide], the IC50 is 34 ± 14 nM. In turn, `O=C(NCCCc1ccccc1)n1c(=O)oc2ccccc21` [Example 43, 2-Oxo-N-(3-phenylpropyl)-1,3-benzoxazole-3-carboxamide] registered a half-maximal inhibitory concentration (IC50) of 55 ± 6 nM. As for `O=C(NCCCCc1cccs1)n1c(=O)oc2ccccc21` [Example 44, 2-Oxo-N-[4-(2-thienyl)butyl]-1,3-benzoxazole-3-carboxamide], the IC50 stood at 99 ± 58 nM. `COc1ccc(CCCCNC(=O)n2c(=O)oc3ccccc32)cc1` [Example 45, N-[4-(4-Methoxyphenyl)butyl]-2-oxo-1,3-benzoxazole-3-carboxamide] showed an IC50 of 63 ± 22 nM.

As to `O=C(NCCCCc1ccc(F)cc1)n1c(=O)oc2ccccc21` [Example 46, N-[4-(4-Fluorophenyl)butyl]-2-oxo-1,3-benzoxazole-3-carboxamide], the midpoint of inhibition, the IC50, lay at 75 nM.

As to `Cc1ccc(CCCCNC(=O)n2c(=O)oc3ccccc32)cc1` [Example 47, 2-Oxo-N-[4-(p-tolyl)butyl]-1,3-benzoxazole-3-carboxamide], the IC50 stood at 28 nM. The molecule `O=C(NCCCc1cccc(F)c1)n1c(=O)oc2ccccc21` [Example 50, N-[3-(3-Fluorophenyl)propyl]-2-oxo-1,3-benzoxazole-3-carboxamide] came in with a half-inhibitory concentration (IC50) of 49 nM.
